Measured values as given in PubChem BioAssay (NCI).
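In this assay, cells in 96-well plates receive the compound at five concentrations for 48 hours. Endpoints are linearly interpolated between the surrounding concentrations. GI50: concentration for 50% inhibition of growth. Definition used: TGI = concentration required for complete inhibition of growth.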

Columns and labels:
Assay in all cases: DTP human tumour cell line panel, 48 h
NCI/ADR-RES ovarian = tested on: NCI/ADR-RES ovarian
MDA-MB-435 = tested on: MDA-MB-435
KM12 colon = tested on: KM12 colon
MOLT-4 leukemia = tested on: MOLT-4 leukemia
SF-539 CNS = tested on: SF-539 CNS
BT-549 breast = tested on: BT-549 breast
DU-145 prostate = tested on: DU-145 prostate
MDA-MB-231 breast = tested on: MDA-MB-231 breast
CAKI-1 renal = tested on: CAKI-1 renal
UACC-257 melanoma = tested on: UACC-257 melanoma

SMILES	TGI (NCI/ADR-RES ovarian) [µM]	TGI (MDA-MB-435) [µM]	TGI (KM12 colon) [µM]	TGI (MOLT-4 leukemia) [µM]	TGI (SF-539 CNS) [µM]	TGI (BT-549 breast) [µM]	TGI (DU-145 prostate) [µM]	TGI (MDA-MB-231 breast) [µM]	TGI (CAKI-1 renal) [µM]	TGI (UACC-257 melanoma) [µM]	GI50 (NCI/ADR-RES ovarian) [µM]	GI50 (MDA-MB-435) [µM]	GI50 (KM12 colon) [µM]	GI50 (MOLT-4 leukemia) [µM]	GI50 (SF-539 CNS) [µM]	GI50 (BT-549 breast) [µM]	GI50 (DU-145 prostate) [µM]	GI50 (MDA-MB-231 breast) [µM]	GI50 (CAKI-1 renal) [µM]	GI50 (UACC-257 melanoma) [µM]
CCN(CC)CCNc1ccc([N+](=O)[O-])c2nc3ccc(OC)cc3c(N)c12	3.53	2.98	2.57	1.61	3.27	2.72	3.07	3.25	3.85	3.97										
CCOC(=O)N(O)c1ccc(/C=C/c2ccccc2)cc1	88.6	48.6	36.6	51.3	40.1	40	> 88.6	39.9	21.4	2.49	13	11	10.6	11	17.1	9.38	11.2	9.39	2.7	0.421
Cc1c(C2CCSc3ccccc3N2)sc2ccccc12 (stereo not given)	> 100	> 100	> 100	> 100	> 100	> 100	> 100	> 100	> 100	> 100										
Cc1cn2cc(-c3ccc4c(c3)CC(=O)N4)nc2s1	> 100	> 100	> 100	> 100	> 100	> 100	> 100	> 100	> 100	> 100	> 100	91	44.2	50.7	> 100	> 100	> 100	> 100	> 100	> 100
C=C(CN1CCN(c2ccc(F)c(Cl)c2)CC1)c1ccc(C(=O)Nc2ccccc2N)cc1	5.09	12.6	> 100	4	26.2	26.5	40.4	6.81	77.8	47.3	2.01	3.2	4.07	0.764	5.79	3.51	8.76	1.81	4.12	13.9
